Reference: ChEMBL document CHEMBL1201862, “PubChem BioAssay data set” (2004)
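Briefly, cells in 96-well plates were exposed to five compound concentrations for 48 h, and endpoints were estimated by linear interpolation. GI50 = concentration required for 50% inhibition of growth.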 Active and inactive are the calls of the source. No stated cut-off is given here; in the data, active = GI50 up to about 1.1 µM and inactive = higher.

How the values were obtained:
Assay in all cases: inhibition of tumour cell growth, NCI panel, 48 h
A549 = system: A549
HCC 2998 = system: HCC 2998
MCF7 = system: MCF7
MDA-MB-231 = system: MDA-MB-231
BT-549 = system: BT-549
DMS-114 = system: DMS-114
HOP-18 = system: HOP-18
RXF 631 = system: RXF 631
SNB-78 = system: SNB-78

Measured: GI50

COc1ccc([C@H]2C=[N+]([O-])O[C@H](OC3CCCC3)[C@@H]2OC(C)=O)cc1OC
inactive: A549 29.4 µM | HCC 2998 13.2 µM | MCF7 22.3 µM | MDA-MB-231 32.7 µM

Clc1ccc2c(c1)CC1C[N+]3=C(CCCCC3)C1=C2 (stereo not drawn)
inactive: A549 30.3 µM | BT-549 26.5 µM | MCF7 64 µM | MDA-MB-231 33 µM

COc1nc(N)nc2nc[nH]c12
inactive: A549 > 500 µM | BT-549 232 µM | DMS-114 467 µM | HCC 2998 > 500 µM | HOP-18 360 µM | MCF7 490 µM | MDA-MB-231 444 µM | RXF 631 647 µM | SNB-78 287 µM

CCOC(=O)CC(NC(=O)c1ccc(/N=N/N(C)C)cc1)C(=O)OCC (stereo not drawn)
inactive: A549 > 100 µM | HCC 2998 > 100 µM

O=C1NC2(CCCCC2)C2CCCCCC12 (stereo not drawn)
inactive: A549 > 100 µM | DMS-114 > 100 µM | HCC 2998 > 100 µM | RXF 631 > 100 µM | SNB-78 > 100 µM

CCOC(=O)NC(=O)c1cn(CCSCCOC(=O)NCCCCCCNC(=O)OCCSCCn2cc(C(=O)NC(=O)OCC)c(=O)[nH]c2=O)c(=O)[nH]c1=O
inactive: A549 > 100 µM | DMS-114 > 100 µM | HOP-18 > 100 µM | SNB-78 > 100 µM

Cn1c2c(c3ccccc31)CCN(CCCCN1CCCCC1)C2=O
inactive: A549 > 100 µM | HOP-18 > 100 µM | RXF 631 > 100 µM | SNB-78 43.1 µM

CCOC(=O)CNC(=O)C(CCC(=O)N(C)O)NC(=O)CCC(N)C(=O)O (stereo not drawn)
inactive: A549 > 100 µM | BT-549 > 100 µM | HCC 2998 > 100 µM | MCF7 > 100 µM | MDA-MB-231 > 100 µM

Cc1c(Cl)cccc1NC(=O)/C=C/c1ccccc1
inactive: A549 > 100 µM | BT-549 > 100 µM | HCC 2998 > 100 µM | MCF7 > 100 µM | MDA-MB-231 17.7 µM

CSC1NC(c2ccccc2)=C(C#N)C(=O)N1C1OCC(OC(C)=O)C(OC(C)=O)C1OC(C)=O (stereo not drawn)
inactive: A549 > 100 µM | BT-549 > 100 µM | HCC 2998 > 100 µM | MCF7 > 100 µM | MDA-MB-231 > 100 µM

O=C(O)CCC(NC(=O)c1ccc(Nc2nc3cc(C(F)(F)F)ccc3nc2C(=O)O)cc1)C(=O)O (stereo not drawn)
inactive: A549 > 100 µM | HCC 2998 > 100 µM | MCF7 > 100 µM | MDA-MB-231 > 100 µM

CN(C)CCSc1nccc(-c2ccc(-c3ccnc(SCCN(C)C)n3)s2)n1
inactive: A549 12.4 µM | DMS-114 11.9 µM | HCC 2998 6.08 µM | HOP-18 27.2 µM | MCF7 4.45 µM | SNB-78 13 µM

O=C1OC(c2ccc(Cl)cc2)(c2ccc(Cl)cc2)c2c1ccc1ccccc21
inactive: A549 > 100 µM | HCC 2998 > 100 µM | HOP-18 > 100 µM | SNB-78 > 100 µM

O=C(NNC(=S)NCc1ccccc1)C12CC3CC(CC(C3)C1)C2
inactive: BT-549 > 100 µM | HCC 2998 69.8 µM | MCF7 61.4 µM | MDA-MB-231 > 100 µM

CC1(C)C2CCC3(OCCO3)C1C(O)C2 (stereo not drawn)
inactive: A549 > 100 µM | HCC 2998 > 100 µM | HOP-18 > 100 µM | RXF 631 > 100 µM | SNB-78 > 100 µM

COc1ccc(N2C(=O)C3C=CC(n4[nH]c(=O)n(Cc5ccccc5)c4=O)CC3C2=O)cc1 (stereo not drawn)
inactive: A549 > 100 µM | DMS-114 > 100 µM | HCC 2998 > 100 µM | HOP-18 > 100 µM | SNB-78 > 100 µM

COc1cc2c(cc1OC)C(Cl)C(c1cc(OC)c(OC)c(OC)c1)=C2Cl (stereo not drawn)
inactive: DMS-114 10.8 µM | HOP-18 14.7 µM | RXF 631 18.8 µM | SNB-78 12.2 µM

CCOC(=O)c1nc2cc(C(F)(F)F)ccc2nc1Oc1ccc(F)cc1
inactive: A549 > 100 µM | BT-549 > 100 µM | HCC 2998 > 100 µM | MCF7 > 100 µM | MDA-MB-231 > 100 µM

NC1(C(=O)O)CCc2ccc(N(CCCl)CCCl)cc2C1 (stereo not drawn)
inactive: A549 61.7 µM | DMS-114 45.9 µM | HCC 2998 > 100 µM | HOP-18 > 100 µM | MCF7 33.8 µM

CCOC(=O)c1csc(NC(=O)CCCC#N)n1
inactive: A549 > 100 µM | HCC 2998 > 100 µM | MCF7 > 100 µM | MDA-MB-231 > 100 µM

CCOC1=C2N=C(Cc3ccc(F)cc3)NC2C(=O)c2ccccc21 (stereo not drawn)
inactive: DMS-114 18.5 µM | HCC 2998 25.8 µM | RXF 631 15.1 µM | SNB-78 69 µM

CC1=NC(C(=O)O)Cc2c1[nH]c1ccccc21 (stereo not drawn)
inactive: DMS-114 > 100 µM | HOP-18 > 100 µM | RXF 631 > 100 µM | SNB-78 > 100 µM

Cc1ccc([N+](=O)[O-])cc1/N=N/C(=O)NNc1cc([N+](=O)[O-])ccc1C
inactive: BT-549 22.5 µM | HCC 2998 23.3 µM | MCF7 26.4 µM | MDA-MB-231 15.5 µM

O=C1CN(c2ccccc2)C(=O)C1C(=O)Nc1ccc(Cl)c(Cl)c1 (stereo not drawn)
inactive: A549 2.72 µM | DMS-114 2.76 µM | RXF 631 3.59 µM

COc1ccc2c(C)cc(N/N=C/c3sccc3C)nc2c1
inactive: A549 13.3 µM | BT-549 13.1 µM | HCC 2998 12.6 µM | MCF7 11.4 µM | MDA-MB-231 1.43 µM

Cc1cc2c(C(C)C)c(O)c(O)c(/C=N/c3ccccc3)c2c(O)c1-c1c(C)cc2c(C(C)C)c(O)c(O)c(/C=N/c3ccccc3)c2c1O
inactive: A549 > 100 µM | DMS-114 > 100 µM | HCC 2998 > 100 µM

COC(=O)c1cccc(C(=O)OC)c1
inactive: A549 > 100 µM | HCC 2998 > 100 µM | HOP-18 > 100 µM | SNB-78 > 100 µM

CO/C(=N/N1CC1C(F)(F)F)c1ccncc1 (stereo not drawn)
inactive: BT-549 43.3 µM | MCF7 > 100 µM | MDA-MB-231 > 100 µM
